Assay [1] concerns EGFR Del 19/T790M Ba/F3 cells. The experiment in a line: MTS cell proliferation and growth assay in EGFR mutant Ba/F3 cells (Del 19/T790M). In kind it is cell-based. Conditions: Mus musculus, BaF3, 72 hours. The source says:
(§1) The EGFR and iERBB2 mutant Ba/F3 cells and the NIH-3T3 cells have been previously characterized (Engelman, J. A. et al. Cancer Res 67, 11924-32 (2007); Yuza, Y. et al. Cancer Biol Ther 6 (2007)). The EGFR C797S and the ERBB2 T798I mutations are introduced using site directed mutagenesis using the Quick Change Site-Directed Mutagenesis kit (Stratagene; La Jolla, Calif.) according to the manufacturer's instructions (Mukohara, T. et al. J Natl Cancer Inst 97, 1185-94 (2005)). The oligonucleotide sequences are available upon request. All constructs are confirmed by DNA sequencing. The constructs are shuttled into the retroviral vector JP1540 using the BD Creator™ System (BD Biosciences). Ba/F3 of NIH-3T3 cells are infected with retrovirus according to standard protocols, as described previously (Engelman, J. A. et al. Proc Natl Acad Sci USA 102, 3788-93 (2005); Zhao, J. J. et al. Cancer Cell 3, 483-95 (2003)). Stable populations are obtained by selection in puromycin (2 μg/ml).
(§2) Growth and inhibition of growth is assessed by MTS assay. […]
(§3) Activity of various compounds of the invention was determined in vitro in EGFR mutant Ba/F3 cells according to the procedures set forth in Example 1.

Assay [2] has as its system EGFR L858R/T790M Ba/F3 cells. The experiment in a line: MTS cell proliferation and growth assay in EGFR mutant Ba/F3 cells (L858R/T790M). In kind it is cell-based. Conditions: Mus musculus, BaF3, 72 hours.
Text: as §1, §2, §3

The next assay concerns lung cancer. Conditions: lung cancer patients; cited from earlier work.

Here are results for four molecules from US9879028B2, “Compounds that modulate EGFR activity and methods for treating or preventing conditions therewith” (Gatekeeper Pharmaceuticals, Inc., priority 2009, dated 2018).

The term IC50 denotes the concentration that inhibits the measured activity by half. Low readings indicate higher potency, high ones lower potency.

`C=CC(=O)Nc1cccc(Oc2nc(Nc3ccc(N4CCN(C)CC4)cc3OC)nc3ccccc23)c1` [IV-1, N-(3-((2-((2-methoxy-4-(4-methylpiperazin-1-yl)phenyl)amino)quinazolin-4-yl)oxy)phenyl)acrylamide]: the results for the IC50 in assay [1] and in assay [2] were 435 nM and 688 nM, respectively.

On to `C=CC(=O)Nc1cccc(-c2csc3cnc(Nc4ccc(N5CCN(C)CC5)cc4OC)nc23)c1` [VIII-1, N-(3-(2-((2-methoxy-4-(4-methylpiperazin-1-yl)phenyl)amino)thieno[3,2-d]pyrimidin-7-yl)phenyl)acrylamide], for which the values for the IC50 in assay [1] and in assay [2] were 864 nM and 2160 nM, respectively.

For the molecule `C#Cc1cccc(Nc2ncnc3cc(OCCOC)c(OCCOC)cc23)c1` [erlotinib], the “median time to tumor progression” value in the assay with lung cancer is “approximately 2 months”.

Consider `COc1cc2ncnc(Nc3ccc(F)c(Cl)c3)c2cc1OCCCN1CCOCC1` [gefitinib], for which the “median time to tumor progression” value in the assay with lung cancer is “approximately 2 months”.
